From patent US20060049177A1, “Induction heating cooker” (LG Electronics Inc., priority 2004, published 2006)
Read-outs that look alike come from different tables or passages of the source.

Key:
[1] = test system: HIV-1; assay: in vitro anti-HIV assay: inhibition of HIV-induced cytopathic effect in MT-4 cells (MTT); format: cell-based; conditions: for SI: selectivity index = ratio of CC50 to IC50
Procedure: (§1) A rapid, sensitive and automated assay procedure was used for the in vitro evaluation of anti-HIV agents. An […] T4-cell line, MT-4, which was previously shown (Koyanagi et al., Int. J. Cancer, 36, 445-451, 1985) to be highly susceptible to and permissive for HIV infection, served as the target cell line. Inhibition of the HIV-induced cytopathic effect was used as the end point. The viability of both HIV- and mock-infected cells was assessed spectrophotometrically via the in situ reduction of 3-(4,5-dimethylthiazol-2-yl)-2,5-diphenyltetrazolium bromide (MTT). The 50% […], cytotoxic concentration (CC50 in μM) was defined as the concentration of compound that reduced the absorbance of the mock-infected control sample by 50%. The percent protection achieved by the compound in HIV-infected cells was calculated by the following formula: [formula]
(§2) whereby (ODT)HIV is the optical density measured with a given concentration of the test compound in HIV-infected cells; (ODC)HIV is the optical density measured for the control untreated HIV-infected cells; (ODC)MOCK is the optical density measured for the control untreated mock-infected cells; all optical density values were determined at 540 nm. The dose achieving 50% protection according to the above formula was defined as the 50% inhibitory concentration (IC50 in μM). The ratio of CC50 to IC50 was defined as the selectivity index (SI).

[2] = test system: MT-4 cells; assay: cytotoxicity in mock-infected MT-4 cells (MTT)
Procedure: as §1, §2

[3] = HIV-infected MT-4 cells, dose achieving 50% protection against cytopathic effect, MTT, OD 540 nm, mean value, read-out: IC50
[4] = Human immunodeficiency virus 1, MT4, HIV-infected MT-4 cells, dose achieving 50% protection against cytopathic effect, MTT, OD 540 nm, mean value, read-out: IC50

| SMILES | IC50 [1, 3] | SI [1] | CC50 [2] | IC50 [1, 4] | IC50 ([1]; Human immunodeficiency virus 1, MT4) |
| --- | --- | --- | --- | --- | --- |
| N#Cc1cccc(Nc2nc(N)nc(Cc3c(Cl)cccc3Cl)n2)c1 [Compound 4] | 240 nM | 224 | 53600 nM | – | – |
| N#Cc1ccc(Nc2nc(Cc3c(Cl)cccc3Cl)nc(NO)n2)cc1 [Compound 33, 4-[[4-[(2,6-dichlorophenyl)methyl]-6-(hydroxyamino)-1,3,5-triazin-2-yl]amino]benzonitrile] | – | 6272 | – | 2 nM | – |
| N#Cc1ccc(Nc2nc(Cc3c(Cl)cccc3Cl)nc(NCC(O)CO)n2)cc1 (stereo not shown) [Compound 26, (O)-4-[[4-[(2,6-dichlorophenyl)methyl]-6-[(2,3-dihydroxypropyl)amino]-1,3,5-triazin-2-yl]amino]benzonitrile] | 68 nM | 883 | 59700 nM | – | – |
| N#Cc1ccc(Nc2nc(Cc3c(Cl)cccc3Cl)nc(Nc3ccc(C#N)cc3)n2)cc1 [Compound 11, N,N′-[6-[(2,6-dichlorophenyl)methyl]1,3,5-triazin-2,4-diyl]bis[4-aminobenzonitrile]] | > 10400 nM | <1 | 6000 nM | – | – |
| CC(=O)Nc1nc(Cc2c(Cl)cccc2Cl)nc(Nc2ccc(C#N)cc2)n1 [Compound 22, N-[4-[(4-cyanophenyl)amino]-6-[(2,6-dichlorophenyl)methyl)-1,3,5-triazin-2-yl]-acetamide] | – | >6993 | – | 14 nM | – |
| CN(C)c1nc(Cc2c(Cl)cccc2Cl)nc(N(c2ccc(C#N)cc2)c2ccc(C#N)cc2)n1 [Compound 38, 4,4′-[[4-[(2,6-dichlorophenyl)methyl]-6-(dimethylamino)-1,3,5-triazin-2-yl]imino]bisbenzonitrile] | – | – | – | > 100000 nM | – |
| CCOC(=O)CC[C@H](Nc1nc(Cc2c(Cl)cccc2Cl)nc(Nc2ccc(C#N)cc2)n1)C(=O)OCC [Compound 17] | 4300 nM | >4 | > 20000 nM | – | – |
| CN(C)C=Nc1nc(Cc2c(Cl)cccc2Cl)nc(Nc2ccc(C#N)cc2)n1 [Compound 62, 4-[[4-[(2,6-dichlorophenyl)methyl]-6-[[(dimethylamino)methylene]amino]-1,3,5-triazin-2-yl]amino]benzonitrile] | – | >41666 | – | 2 nM | – |
| N#Cc1ccc(Nc2nc(Cc3c(Cl)cccc3Cl)nc(NCCO)n2)cc1 [Compound 18] | 1 nM | >2030 | > 20000 nM | – | – |
| N#Cc1ccc(Nc2nc(N)nc(Cc3c(Cl)cccc3Cl)n2)cc1 [Compound 1, 4-[[4-amino-6-[(2,6-dichlorophenyl)methyl]-1,3,5-triazin-2-yl]amino]benzonitrile] | – | >42553 | – | 2 nM | – |
| N#Cc1ccc(Nc2nc(N)nc(Cc3cc(F)ccc3F)n2)cc1 [Compound 51] | 31 nM | >640 | > 20000 nM | – | – |
| N#Cc1ccc(Nc2nc(N)nc(Cc3cc(F)cc(F)c3)n2)cc1 [Compound 59] | 420 nM | >241 | > 100000 nM | – | – |
| CCOC(=O)Nc1nc(Cc2c(Cl)cccc2Cl)nc(Nc2ccc(C#N)cc2)n1 [Compound 37] | 11 nM | 7948 | 85000 nM | – | – |
| COC(=O)CNc1nc(Cc2c(Cl)cccc2Cl)nc(Nc2ccc(C#N)cc2)n1 [Compound 13] | 110 nM | >178 | > 20000 nM | – | – |
| N#Cc1ccc(Nc2nc(Cc3c(Cl)cccc3Cl)nc(NCCCO)n2)cc1 [Compound 25] | 29 nM | 1773 | 51600 nM | – | – |
| CN(C)CCNc1nc(Cc2c(Cl)cccc2Cl)nc(Nc2ccc(C#N)cc2)n1 [Compound 29] | 5 nM | 1741 | 8700 nM | – | – |
| COc1ccc(C(C)=O)cc1Cc1nc(N)nc(Nc2ccc(C#N)cc2)n1 [Compound 60] | 39 nM | 1841 | 71400 nM | – | – |
| N#Cc1ccc(Nc2nc(Cc3c(Cl)cccc3Cl)nc(NCC(N)=O)n2)cc1 [Compound 14, [N-[4-[(4-cyano-phenyl)amino]-6-[(2,6-dichlorophenyl)methyl]-1,3,5-triazin-2-yl]]aminoacetamide] | – | 293 | – | 31 nM | – |
| CONc1nc(Cc2c(Cl)cccc2Cl)nc(Nc2ccc(C#N)cc2)n1 [Compound 36] | 5 nM | 8097 | 40900 nM | – | – |
| Nc1nc(Cc2c(Cl)cccc2Cl)nc(Nc2ccc(Cl)cc2)n1 [Compound 5] | 17 nM | 2793 | 47500 nM | – | – |
| COc1ccc(OC)c(Cc2nc(N)nc(Nc3ccc(C#N)cc3)n2)c1 [Compound 46] | 40 nM | >2506 | > 100000 nM | – | – |
| CC(=O)Nc1nc(Cc2c(Cl)cccc2Cl)nc(N(C(C)=O)c2ccc(C#N)cc2)n1 [Compound 40] | 2 nM | >41666 | > 100000 nM | – | – |
| N#Cc1ccc(Nc2nc(N)nc(Cc3ccccc3Cl)n2)cc1 [Compound 3] | 13 nM | 3972 | 51600 nM | – | – |

| SMILES | IC50 [1, 3] | SI [1] | CC50 [2] | IC50 [1, 4] | IC50 ([1]; Human immunodeficiency virus 1, MT4) |
| --- | --- | --- | --- | --- | --- |
| N#Cc1ccc(Nc2nc(Cc3c(Cl)cccc3Cl)nc(NCCCN)n2)cc1 [Compound 30] | 40 nM | 416 | 16500 nM | – | – |
| N#Cc1ccc(Nc2nc(N)nc(Cc3c(Cl)ccc(Cl)c3Cl)n2)cc1 [Compound 44] | 3 nM | >35087 | > 100000 nM | – | – |
| N#Cc1ccc(Nc2nc(N)nc(Cc3c(Cl)ccc4[nH]ccc34)n2)cc1 [Compound 8, 4-[[4-amino-6-[(5-chloro-1H-indol-4-yl)methyl]-1,3,5-triazin-2-yl]amino]benzonitrile] | – | 4806 | – | – | 300 nM |
| Cc1ccc(C)c(Cc2nc(N)nc(Nc3ccc(C#N)cc3)n2)c1 [Compound 49] | 91 nM | >220 | > 20000 nM | – | – |
| N#Cc1ccc(Nc2nc(Cc3c(Cl)cccc3Cl)nc(NCCN)n2)cc1 [Compound 19] | 13 nM | 810 | 10400 nM | – | – |
| CN(C)c1nc(Cc2c(Cl)cccc2Cl)nc(Nc2ccc(C#N)cc2)n1 [Compound 10] | 170 nM | >602 | > 100000 nM | – | – |
| N#Cc1ccc(Nc2nc(Cc3c(Cl)cccc3Cl)nc(NCCCCO)n2)cc1 [Compound 24] | 68 nM | 529 | 36100 nM | – | – |
| N#Cc1ccc(Nc2nc(N)nc(Cc3cc(C(F)(F)F)ccc3C(F)(F)F)n2)cc1 [Compound 56] | > 74400 nM | – | > 100000 nM | – | – |
| N#Cc1ccc(Nc2nc(Cc3c(Cl)cccc3Cl)nc(NCCCNC(N)=O)n2)cc1 [Compound 23, N-[3-[[4-[(4-cyanophenyl)amino]-6-[(2,6-dichlorophenyl)methyl]-1,3,5-triazin-2-yl]amino]propyl]urea] | – | 106 | – | 340 nM | – |
| CCO.Cl.N#Cc1ccc(Nc2nc(N)nc(C(CC3CC3)c3c(Cl)cccc3Cl)n2)cc1 (stereo not shown) [Compound 61] | 6900 nM | 7 | 53400 nM | – | – |
| CCOC(=O)N(C(=O)OCC)c1nc(Cc2c(Cl)cccc2Cl)nc(N(C(=O)OCC)c2ccc(C#N)cc2)n1 [Compound 41] | 13 nM | 3125 | 40200 nM | – | – |
| N#Cc1ccc(Nc2nc(N)nc(Cc3cccc(OC(F)(F)F)c3)n2)cc1 [Compound 45] | 430 nM | >233 | > 100000 nM | – | – |
| N#Cc1ccc(Nc2nc(N)nc(Cc3ccccc3)n2)cc1 [Compound 2] | 290 nM | >350 | > 100000 nM | – | – |
| N#Cc1ccc(Nc2nc(Cc3c(Cl)cccc3Cl)nc(NCCc3cccs3)n2)cc1 [Compound 35] | 700 nM | 75 | 53000 nM | – | – |
| CCN(CC)c1nc(Cc2c(Cl)cccc2Cl)nc(Nc2ccc(C#N)cc2)n1 [Compound 12] | 8100 nM | >2 | > 20000 nM | – | – |
| CN(C)CCCNc1nc(Cc2c(Cl)cccc2Cl)nc(Nc2ccc(C#N)cc2)n1 [Compound 31] | 19 nM | 506 | 9600 nM | – | – |
| Cc1cc(C)c(C)c(Cc2nc(N)nc(Nc3ccc(C#N)cc3)n2)c1C [Compound 54] | 5 nM | 9515 | 43800 nM | – | – |
| COc1cccc(Cc2nc(N)nc(Nc3ccc(C#N)cc3)n2)c1OC [Compound 50] | 79 nM | >252 | > 20000 nM | – | – |
| N#Cc1ccc(Nc2nc(Cc3c(Cl)cccc3Cl)nc(NCC(=O)O)n2)cc1 [Compound 16, N-[4-[(4-cyanophenyl)-amino]-6-[(2,6-dichlorophenyl)methyl]-1,3,5-triazin-2-yl]glycine] | – | 28 | – | 2800 nM | – |
| N#Cc1ccc(Nc2nc(N)nc(Cc3c(F)ccc(F)c3F)n2)cc1 [Compound 52] | 3 nM | >220 | – | – | – |
| N#Cc1ccc(Nc2nc(Cc3c(Cl)cccc3Cl)nc(NN)n2)cc1 [Compound 15, 4-[[4-[(2,6-dichlorophenyl)methyl]-6-hydrazino-1,3,5-triazin-2yl]amino]benzonitrile] | – | 732 | – | 61 nM | – |
| N#Cc1ccc(Nc2nc(Cc3c(Cl)cccc3Cl)nc(NC(=N)N)n2)cc1 [Compound 20, N-[4-[(4-cyanophenyl)amino]-6-[(2,6-dichlorophenyl)methyl]-1,3,5-triazin-2-yl]-guanidine] | – | <1 | – | > 100000 nM | – |
